Results taken from patent US5545669A, “Anti-inflammatory compounds” (priority 1994, dated 1996).

How the values were obtained:
[1] = tested on: mouse bone marrow-derived mast cells; assay: Assay (e): arachidonate content of cellular phospholipids; type: cell-based; settings: 24-48 hours in culture
Experimental: The following is the method for assessing the ability of a compound to alter arachidonate content of cellular phospholipids, which can be generalized for any desired cell. Specifically, mouse bone marrow-derived mast cells are removed from culture and provided with exogenous [^3 H]arachidonic acid for 30 minutes. The labeled arachidonic acid which had not been incorporated into the cells is then removed by washing the cells 2 times with an albumin-containing buffer. At that point, the cells are treated with various concentrations of CoA-IT inhibitors and then placed back in culture for 24-48 hours. The phospholipids are extracted by the method of Bligh and Dyer [Can. J. Biochem. Physiol. (1959) 37,911-917] and phospholipids separated by normal phase HPLC by the method of Chilton [Methods Enzymol. (1990)187, 157-166]. The radioactive and mole quantities of arachidonate in complex lipids are determined. At this point, cellular lipid extracts are treated with KOH (0.5M) to remove fatty acids from complex lipids (phospholipids) and the quantities of arachidonate in these extracts can then be determined by various methods, including gas chromatography and mass spectrometry (Chilton [Methods Enzymol. (1990)187, 157-166]).

[2] = tested on: human neutrophils; assay: Assay (e): mobilization of labeled arachidonic acid into 1-ether phospholipids in intact cells; type: cell-based; settings: non-stimulated human neutrophils, 2 hrs
Experimental: Measurement of the effect of CoA-IT inhibitors on the transfer of [^3 H]arachidonate into 1-ether phospholipids in non-stimulated inflammatory cells can be accomplished by general application of the following specific method. Human neutrophils were isolated and resuspended (5×10^7 /ml) in Hanks Balanced Salt Solution (HBSS; Gibco). [5,6,8,9,11,12,14,15-^3 H]-Arachidonic acid (100 Ci/mmol; New England Nuclear) complexed to 200 μl HBSS containing 0.25 mg/ml HSA was added to the cell suspension (1 μCi/ml). The cells were incubated with gentle shaking at 37° C. for 5 min. The reaction was terminated by the addition of 40 ml ice-cold HBSS containing HSA (0.25 mg/ml). The cells were then removed from the supernatant fluid by centrifugation (225 g, 8 min). Unincorporated [^3 H]-arachidonic acid was completely removed by two more washes of HBSS containing 0.25 mg/mi HSA. The neutrophils were resuspended in fresh buffer, exposed to various concentrations of a CoA-IT inhibitor or its vehicle and incubated without stimulation for 2 hrs. […] The phospholipid subclasses were separated by TLC in benzene/hexane/ethyl ether (50:45:4, v/v), located by image analysis (Bioscan) and the amount of radioactivity in each class was determined by zonal scraping and liquid scintillation counting.

## O=C(O)c1ccccc1Oc1ccc(C(F)(F)F)cc1NS(=O)(=O)c1cc(C(F)(F)F)cc(C(F)(F)F)c1 [Example 1, 2-[2-[3,5-Bis(trifluoromethyl)phenylsulfonamido]-4-trifluoromethylphenoxy]benzoic acid]
[1]
  decreasing the arachidonic content: positive activity
[2]
  blocking the movement of arachidonic acid into 1-ether phospholipids: positive activity
